Measurements taken from US20210292330A1, “PYRROLIDINE-FUSED HETEROCYCLES” (Erasca, Inc., priority 2020, published 2021).

Biological target: T1, KRAS 4B G12C protein (Homo sapiens, UniProt P01116, G12C)
T1 construct: This protein contained 188 amino acids in total, including an N-terminal 6-Histidine tag; made in house; host or cells: E. coli BL21
Assay: In vitro covalent adduct formation (CAF) assay by LC-MS
Type: binding
Details: compound 10 μM, protein 5 μM, 22° C., percentage of protein bound by the compound
Description: In vitro covalent adduct formation assay: Covalent adduct formation (CAF) reactions between Cys12 of the KRAS 4B G12C protein and some of the compounds of Table 1 were measured in vitro using liquid chromatography-mass spectrometry (LC-MS).
Recombinant Human KRAS 4B protein containing the G12C mutation was used in compound screening experiments. This protein contained 188 amino acids in total, including an N-terminal 6-Histidine tag, followed by a Tobacco Etch Virus (TEV) tag, followed by residues 1-169 of the native KRAS 4B sequence. The exact mass of the protein was 21,310 Da as determined by mass spectrometry. The full amino acid sequence is shown below:
The recombinant protein was expressed in E. coli BL21 cells and purified using affinity chromatography via a Ni-NTA column. […] Pure KRAS 4B G12C protein was diluted to a concentration of 5 μM in Tris Buffered Saline, pH 7.4. The compounds were dissolved in DMSO and added to the diluted protein to make a 10 μM concentration. The total DMSO concentration in the reaction was 4%. The reaction was mixed by pipetting and incubated at 22° C. for one hour. Aliquots of the reaction were taken over time and diluted 2:1 in 0.1% formic acid. The intact mass of the protein samples was measured by LC-MS using a QExactive+ mass spectrometer (Thermo Scientific). An amount of 500 ng total protein was injected onto a C8 reverse phase column, eluted with a seven-minute gradient of 30%-90% acetonitrile/0.1% formic acid, and analyzed for intact mass by the mass spectrometer. Adducts identified were confirmed to be within 1 Dalton of the expected mass, and the relative ratios of free:adduct protein were used to quantify the percentage of protein bound by the compound. CAF reactions were run in duplicate, with a typical variability of ±5%.

SMILES | CAF (10 minutes/60 minutes) at 10 micromolar: 10 minutes | CAF (10 minutes/60 minutes) at 10 micromolar: 60 minutes
C=CC(=O)N1CCN(c2nc(OC[C@@H]3CCCN3C)nc3c2CN(Cc2c(O)cccc2F)C3)[C@@H](C)C1 [1-47] | 11% | 43%
C=CC(=O)N1CCN(c2nc(OC[C@@H]3CCCN3C)nc3c2CN(Cc2cc(F)ccc2Cl)C3)C[C@@H]1CC#N [1-25] | 78% | 93%
C=CC(=O)N1CCN(c2nc(OC[C@@H]3CCCN3C)nc3c2CN(Cc2c(F)cccc2F)C3)C[C@@H]1CC#N [1-61] | – | NA/ 80%
C=C(F)C(=O)N1CCN(c2nc(OC[C@@H]3CCCN3C)nc3c2CN(Cc2c(CC)ccc(O)c2OC)C3)C[C@@H]1CC#N [1-313] | 87% | 95%
C=CC(=O)N1CCN(c2nc(OC[C@@H]3CCCN3C)nc3c2CN(Cc2cc(F)ccc2C)C3)C[C@@H]1CC#N [1-11] | 87% | 98%
C=CC(=O)N1CCN(c2nc(OC[C@@H]3CCCN3C)nc3c2CN(Cc2nc(N)cc(C)c2C(F)(F)F)C3)C[C@@H]1CC#N [1-335] | 92% | 95%
C=C(F)C(=O)N1CCN(c2nc(OC[C@@H]3CCCN3C)nc3c2CN(Cc2cc(O)c(Cl)cc2C)C3)C[C@@H]1CC#N [1-326, 2-[(2S)-4-{6-[(4-chloro-5-hydroxy-2-methylphenyl)methyl]-2-{[(2S)-1-methylpyrrolidin-2-yl]methoxy}-5H,7H-pyrrolo[3,4-d]pyrimidin-4-yl}-1-(2-fluoroprop-2-enoyl)piperazin-2-yl]acetonitrile] | 0% | 2%
C=CC(=O)N1CCN(c2nc(OC[C@@H]3CCCN3C)nc3c2CN(C2CCc4ccccc42)C3)C[C@@H]1CCC#N (stereo partly drawn) [1-212] | 0% | 5%
C=CC(=O)N1CCN(c2nc(OC[C@@H]3CCCN3C)nc3c2CN(Cc2cc(C(F)(F)F)ccc2C)C3)[C@@H](C)C1 [1-15] | 0%/ 0% | 0%/ 0%
C=CC(=O)N1CC2(C1)CN(c1nc(OC[C@@H]3CCCN3C)nc3c1CN(C1CCc4ccccc41)C3)CCO2 (stereo partly drawn) [1-216] | 18% | 54%
C=CC(=O)N1CCN(c2nc(OC[C@@H]3CCCN3C)nc3c2CN(Cc2cc(Cl)ccc2C)C3)[C@@H](C)C1 [1-30] | 0% | 7%
C=CC(=O)N1CC2CC(=O)CC(C1)N2c1nc(OC[C@@H]2CCCN2C)nc2c1CN(C1CCc3ccccc31)C2 (stereo partly drawn) [1-251] | 0%/ 0% | 0%/ 0%
C=CC(=O)N1CCN(c2nc(OC[C@@H]3CCCN3C)nc3c2CN(Cc2cc(O)c(C)cc2Cl)C3)C[C@@H]1CC#N [1-323] | 72% | 93%
C=CC(=O)N1CCN(c2nc(OC[C@@H]3CCCN3C)nc3c2CN(Cc2cc(F)ccc2C(C)C)C3)C[C@@H]1CC#N [1-172] | 68% | 73%
C=CC(=O)N1CCN(c2nc(OC[C@@H]3CCCN3C)nc3c2CN(Cc2cccc4ncoc24)C3)C[C@@H]1CC#N [1-203] | 11% | 52%
C=CC(=O)N1CCN(c2nc(OC[C@@H]3CCCN3C)nc3c2CN(Cc2c(O)cccc2Cl)C3)C[C@@H]1CC#N [1-51] | 98%/ 98% | 98%/ 98%
C=CC(=O)N1CCN(c2nc(OC[C@@H]3CCCN3C)nc3c2CN(Cc2ccccc2C(F)(F)F)C3)C[C@@H]1CC#N [1-213] | 94% | 95%
